Assays:
[1] = target: T1, branched-chain aminotransferase (MtIlvE) (Mycobacterium tuberculosis, UniProt P9WQ75); test: biochemical; format: binding
[2] = target: T1, branched-chain aminotransferase (MtIlvE); test: […]; format: biochemical; conditions: read-out: Ki

T1 sequence (P9WQ75 whole entry): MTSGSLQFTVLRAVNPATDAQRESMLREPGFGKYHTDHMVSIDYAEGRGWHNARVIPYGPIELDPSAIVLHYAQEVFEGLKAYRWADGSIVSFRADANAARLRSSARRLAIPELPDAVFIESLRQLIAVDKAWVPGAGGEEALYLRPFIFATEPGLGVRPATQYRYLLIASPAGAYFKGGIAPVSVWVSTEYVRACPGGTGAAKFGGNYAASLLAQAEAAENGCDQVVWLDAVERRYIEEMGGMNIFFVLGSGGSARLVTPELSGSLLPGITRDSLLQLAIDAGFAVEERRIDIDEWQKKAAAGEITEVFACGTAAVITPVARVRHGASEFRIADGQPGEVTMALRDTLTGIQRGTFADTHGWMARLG

| Compound | kinact/KI [1] [M⁻¹ s⁻¹] | KI (inactivation) [2] [µM] |
| --- | --- | --- |
| N[C@@H]1CON=C1O [DCS, D-Cycloserine] | 0.12 | – |
| N[C@H]1CONC1=O [LCS, L-cycloserine] | – | 88 |

Reference: publication PMC5834943 (ACS chemical biology, 2017)
